Experiments:
Assay type in all cases: cell-based
[1] = system: ypt1^ts cells; assay: Rescue of growth of ypt1^ts mutant yeast (OD600); settings: Saccharomyces cerevisiae, read-out: Ypt1-ts MRC (Minimum Rescue Concentration), ypt1^ts cells, 35° C. and 37° C., OD600; multiple results separated by a comma
Source text: The activity of the compounds as modulators of protein trafficking may be measured in the assays described herein that evaluate the ability of a compound to rescue an impairment in protein trafficking. For example, the yeast mutant cell line ypt1^ts can be used to identify compounds that rescue cells from the lethal phenotype of a mutant YPT1 allele (see, e.g., Examples and Schmitt et al. (1988) Cell 53:635-47). The activity may be measured, for example, in a whole yeast cell assay using 384-well screening protocol and an optical density measurement.
The yeast mutant cell line ypt1^ts suppresses, in a temperature dependent fashion, the dominant-lethal phenotype of a mutant YPT1 allele (Schmitt et al. (1988) Cell 53:635-47). The yeast mutant cell line ypt1^ts contains an allele of YPT1 that has two point mutations: one that changes an asparagine at position 121 to a isoleucine (N121I) and another that changes an alanine at position 161 to a valine (A161V). The N121I mutation causes dominant lethality by itself, but lethality is suppressed by the second mutation, resulting in a recessive loss of function phenotype at the restrictive temperatures. ypt1^ts cells grow normally at temperatures up to 25° C., but are growth arrested at 37° C. (Id.).
Compounds were screened to assess their ability to restore growth of ypt1^ts cells. The effect of the compounds was measured on ypt1^ts cells cultured at room temperature (permissive temperature), 37° C. (non-permissive temperature), and 35° C. (semi-permissive temperature).
To determine if the test compounds could rescue the ypt1^ts mutant phenotype, ypt1^ts cells were grown overnight in synthetic complete (SC) media supplemented with 2% glucose at room temperature. Log phase cells were diluted into SC 2% glucose media to an OD600 of 0.003. 100 μL of this culture was then aliquoted into each well of 96-well flat bottom microtiter plates. 1 μL of the test compounds dissolved in DMSO (at a concentration range from 5 mM-0.005 mM) or of DMSO alone was added to each well (50 μM-0.05 μM final concentration in 1% DMSO). Plates were mixed by vortexing and incubated at 35° C. and 37° C. Compound rescue of the ypt1^ts temperature sensitive defect was assessed by measuring the OD600 (optical density at 600 nm; cell growth) of the cultures. Plates incubated at 35° C. were measured at 24 and 40 hours incubation time while plates grown at 37° C. were measured after 40 hours of incubation.
Assays monitoring the rescue of ypt1^ts mutants were performed using a vehicle, a positive control (calcium), and the compounds identified in Table II. Results in Table II corresponding to an MRC (Minimum Rescue Concentration) for ypt1^ts of greater than or equal to 50 micromolar are labeled +; of an MRC for ypt1^ts of 10-50 micromolar are labeled ++; and of an MRC for ypt1^ts of less than 10 micromolar are labeled +++. Multiple results for a particular compound are separated by a comma.

[2] = target: T1, ΔF508 CFTR (Homo sapiens, UniProt P13569, DEL508-508); assay: Corrector activity, YFP halide (iodide) quenching assay in FRT cells expressing ΔF508 CFTR; design: expressed in transfected cells; host or cells: Fischer rat thyroid (FRT) cells; settings: 24 hours with compound at 37° C., forskolin and genistein
T1 sequence (P13569 with tags, fused parts or gaps DEL508-508): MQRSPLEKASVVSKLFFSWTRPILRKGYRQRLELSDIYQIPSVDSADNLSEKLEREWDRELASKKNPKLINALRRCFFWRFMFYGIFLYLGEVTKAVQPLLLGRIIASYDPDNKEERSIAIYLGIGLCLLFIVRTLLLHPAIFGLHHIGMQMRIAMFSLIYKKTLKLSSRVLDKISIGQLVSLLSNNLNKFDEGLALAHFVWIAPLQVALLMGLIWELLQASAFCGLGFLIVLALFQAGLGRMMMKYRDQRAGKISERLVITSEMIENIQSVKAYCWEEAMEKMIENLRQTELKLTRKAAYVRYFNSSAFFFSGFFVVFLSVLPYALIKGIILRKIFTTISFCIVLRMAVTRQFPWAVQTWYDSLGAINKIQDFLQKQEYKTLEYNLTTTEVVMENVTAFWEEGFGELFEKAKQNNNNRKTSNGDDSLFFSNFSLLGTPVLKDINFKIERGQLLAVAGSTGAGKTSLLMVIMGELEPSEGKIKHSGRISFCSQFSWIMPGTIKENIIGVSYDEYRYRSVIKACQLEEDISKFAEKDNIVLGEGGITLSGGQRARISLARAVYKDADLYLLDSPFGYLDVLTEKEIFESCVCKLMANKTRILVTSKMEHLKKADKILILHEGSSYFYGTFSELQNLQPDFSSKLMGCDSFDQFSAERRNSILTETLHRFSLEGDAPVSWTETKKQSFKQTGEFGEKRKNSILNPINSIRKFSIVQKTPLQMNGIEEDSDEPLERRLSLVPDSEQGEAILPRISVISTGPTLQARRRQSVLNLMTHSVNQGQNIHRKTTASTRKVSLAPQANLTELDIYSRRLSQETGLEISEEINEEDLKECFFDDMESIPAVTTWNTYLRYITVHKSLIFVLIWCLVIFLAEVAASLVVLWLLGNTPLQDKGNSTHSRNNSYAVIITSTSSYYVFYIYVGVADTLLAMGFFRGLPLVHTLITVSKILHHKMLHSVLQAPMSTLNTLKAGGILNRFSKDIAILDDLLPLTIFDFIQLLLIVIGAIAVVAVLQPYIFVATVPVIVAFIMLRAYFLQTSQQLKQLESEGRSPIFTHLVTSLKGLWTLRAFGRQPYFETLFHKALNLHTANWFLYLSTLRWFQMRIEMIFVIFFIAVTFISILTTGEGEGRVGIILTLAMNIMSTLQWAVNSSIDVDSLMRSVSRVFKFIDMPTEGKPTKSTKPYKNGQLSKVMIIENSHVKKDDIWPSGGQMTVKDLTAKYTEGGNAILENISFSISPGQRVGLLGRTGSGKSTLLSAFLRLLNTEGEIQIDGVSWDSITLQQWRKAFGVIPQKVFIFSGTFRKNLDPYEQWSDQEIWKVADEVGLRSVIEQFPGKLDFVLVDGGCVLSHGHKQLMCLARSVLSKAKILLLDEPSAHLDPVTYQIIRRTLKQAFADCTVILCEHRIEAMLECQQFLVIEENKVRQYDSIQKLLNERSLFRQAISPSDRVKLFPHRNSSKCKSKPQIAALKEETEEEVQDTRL
Method in brief: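 FRT cells co-expressing ΔF508 CFTR and halide-sensitive YFP were incubated 24 h at 37° C with compounds, then stimulated 30 min at 37° C in PBS with forskolin and genistein. Endpoint fluorescence after iodide injection was normalized to initial reading; EC50 from 4-parameter fit with bottom constrained to DMSO control.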

[3] = target: T1, ΔF508 CFTR; assay: Potentiator activity, YFP halide (iodide) quenching assay in FRT cells expressing ΔF508 CFTR, 27° C. pre-incubation; design: expressed in transfected cells; host or cells: Fischer rat thyroid (FRT) cells; settings: FRT cells ΔF508 CFTR/YFP, 24 hours at 27° C., compound with forskolin 30 min
Method in brief: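 FRT cells stably co-expressing ΔF508 CFTR and halide-sensitive YFP, grown 24 h at 37° C. then 24 h at 27° C. to raise surface CFTR. Compounds in PBS with forskolin, 30 min at 37° C.; iodide injected and YFP quenching (ex 485/em 530 nm) followed. EC50 from normalized endpoint fluorescence.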

[4] = FRT cells ΔF508 CFTR/YFP, read-out: Corrector EC50
[5] = Corrector EC50, FRT cells ΔF508 CFTR/YFP

## C#CCn1nc(-c2ccc(Cl)cc2)c2c(N)ncnc21 [compound 30]
[1]
  minimal effective concentration: > 50 µM
[2]; [4]
  EC50: > 15 µM

## Cc1cc(-c2nn(C(C)(C)C)c3ncnc(N)c23)ccc1F [compound 41]
[1]
  minimal effective concentration: > 50 µM
[2]; [4]
  EC50: > 15 µM

## CC(C)(C)n1nc(-c2cccc(Cl)c2)c2c(N)ncnc21 [compound 10]
[3]
  EC50: < 2 µM
[1]
  minimal effective concentration: > 50 µM
[2]; [4]
  EC50: > 15 µM

## CCn1nc2cccc(N)c2c1-c1ccc(C)cc1 [compound 80]
[3]
  EC50: > 15 µM
[1]
  minimal effective concentration: > 50 µM
[2]; [4]
  EC50: > 15 µM

## CC(C)n1nc(-c2ccc(Cl)cc2)c2c(N)ncnc21 [compound 27]
[1]
  minimal effective concentration: 10 to 50 µM
[2]; [4]
  EC50: 2 to 5 µM

## Nc1ncnc2c1c(-c1ccc(Cl)cc1)nn2C1CCCCC1 [compound 3]
[1]
  minimal effective concentration: > 50 µM
[2]; [4]
  EC50: > 15 µM

## Nc1ncnc2c1c(-c1ccc(Cl)cc1)nn2C1CCC1 [compound 33]
[3]
  EC50: < 2 µM
[1]
  minimal effective concentration: 10 to 50 µM
[2]; [4]
  EC50: 5 to 10 µM

## Cc1ccc(-c2nn(C(C)(C)C)c3ncnc(N)c23)cc1 [compound 24]
[1]
  minimal effective concentration: 10 to 50 µM
[2]; [5]
  EC50: 2 to 5 µM

## CCn1nc(-c2ccc(Cl)cc2)c2c(NC(C)=O)ncnc21 [compound 53]
[1]
  minimal effective concentration: > 50 µM
[2]; [4]
  EC50: 5 to 10 µM

## Nc1ncnc2c1c(-c1ccc(Cl)cc1)nn2C1CCCC1 [compound 34]
[3]
  EC50: < 2 µM
[1]
  minimal effective concentration: 10 to 50 µM

## C=CCn1nc(-c2ccc(Cl)cc2)c2c(N)ncnc21 [compound 32]
[1]
  minimal effective concentration: > 50 µM
[2]; [4]
  EC50: > 15 µM

## COC(=O)c1cnc2c(c(-c3ccc(C)cc3)nn2C(C)(C)C)c1N [compound 46]
[3]
  EC50: > 15 µM
[1]
  minimal effective concentration: > 50 µM
[2]; [4]
  EC50: > 15 µM

## CC(C)(C)n1nc(-c2cccc3ccccc23)c2c(N)ncnc21 [compound 6]
[1]
  minimal effective concentration: 10 to 50 µM
[2]; [5]
  EC50: > 15 µM

## CCn1cc(-c2ccc(C)cc2)c2c(N)cccc21 [compound 43, 1-Ethyl-3-p-tolyl-1H-indol-4-ylamine]
[3]
  EC50: > 15 µM
[1]
  minimal effective concentration: > 50 µM
[2]; [4]
  EC50: > 15 µM

## CCn1nc(-c2ccc(Cl)cc2)c2c(N)ncnc21 [compound 31]
[3]
  EC50: > 15 µM
[1]
  minimal effective concentration: < 10 µM
[2]; [4]
  EC50: 5 to 10 µM

## CC(C)(C)n1nc(-c2ccccc2)c2c(N)ncnc21 [compound 8]
[1]
  minimal effective concentration: > 50 µM
[2]; [4]
  EC50: > 15 µM

## CC(=O)Nc1ncnc2c1c(-c1ccc(Cl)cc1)nn2C(C)(C)C [Compound No. 2, N-[1-tert-Butyl-3-(4-chloro-phenyl)-1H-pyrazolo[3,4-d]pyrimidin-4-yl]-acetamide]
[3]
  EC50: < 2 µM
[1]
  minimal effective concentration: > 50 µM
[2]; [4]
  EC50: 5 to 10 µM

## CC(C)(C)n1nc(-c2ccc(F)cc2)c2c(NC(=O)c3ccccc3)ncnc21 [compound 40, N-[1-tert-Butyl-3-(4-fluoro-phenyl)-1H-pyrazolo[3,4-d]pyrimidin-4-yl]-benzamide]
[1]
  minimal effective concentration: > 50 µM
[2]; [4]
  EC50: > 15 µM

## Cn1nc(-c2ccc(Cl)cc2)c2c(N)ncnc21 [compound 1]
[1]
  minimal effective concentration: > 50 µM
[2]; [4]
  EC50: > 15 µM

## Nc1ncnc2c1c(-c1ccc(Cl)cc1)nn2CC1CC1 [compound 29, 3-(4-Chloro-phenyl)-1-cyclopropylmethyl-1H-pyrazolo[3,4-d]pyrimidin-4-ylamine]
[1]
  minimal effective concentration: < 10 µM
[2]; [4]
  EC50: 5 to 10 µM

## Nc1ncnc2c1c(Cc1cccc3ccccc13)nn2C1CCC1 [compound 74]
[1]
  minimal effective concentration: < 10 µM
[2]; [4]
  EC50: > 15 µM

## Nc1ncnc2c1c(Cc1cccc3ccccc13)nn2C1CCCC1 [compound 77]
[1]
  minimal effective concentration: < 10 µM
[2]; [4]
  EC50: > 15 µM

## Nc1ncnc2c1c(Cc1cccc3ccccc13)nn2C1CC1 [compound 73]
[1]
  minimal effective concentration: < 10 µM

## Nc1ncnc2c1c(-c1ccc(Cl)cc1)nn2-c1ccccc1 [compound 4]
[1]
  minimal effective concentration: > 50 µM
[2]; [4]
  EC50: > 15 µM

## CCn1nc(-c2ccc(C)cc2)c2c(N)cccc21 [compound 44, 1-Ethyl-3-p-tolyl-1H-indazol-4-ylamine]
[3]
  EC50: > 15 µM
[1]
  minimal effective concentration: > 50 µM
[2]; [4]
  EC50: > 15 µM

## CC(C)(C)n1nc(-c2cc3ccccc3s2)c2c(N)ncnc21 [compound 16, 3-Benzo[b]thiophen-2-yl-1-tert-butyl-1H-pyrazolo[3,4-d]pyrimidin-4-ylamine]
[1]
  minimal effective concentration: > 50 µM
[2]; [4]
  EC50: > 15 µM

## CC(C)(C)n1nc(-c2ccc(Cl)c(Cl)c2)c2c(N)ncnc21 [compound 36]
[1]
  minimal effective concentration: > 50 µM

## CC(C)(C)n1nc(Cc2cccc(F)c2)c2c(N)ncnc21 [compound 50]
[1]
  minimal effective concentration: 10 to 50 µM

## CNC(=O)c1cnc2c(c(-c3ccc(C)cc3)nn2C(C)(C)C)c1N [compound 47]
[3]
  EC50: > 15 µM
[1]
  minimal effective concentration: > 50 µM
[2]; [4]
  EC50: > 15 µM

## Cc1ccc(Cc2nn(C(C)(C)C)c3ncnc(N)c23)cc1C [compound 65]
[1]
  minimal effective concentration: 10 to 50 µM

## CC(C)(C)n1nc(Cc2ccccc2Cl)c2c(N)ncnc21 [compound 20]
[1]
  minimal effective concentration: 10 to 50 µM

## CC(C)(C)n1nc(CNc2ccccc2)c2c(N)ncnc21 [compound 88]
[1]
  minimal effective concentration: 10 to 50 µM

## CCn1cc(-c2ccc(C)cc2)c2c(N)ncnc21 [compound 86]
[3]
  EC50: 5 to 10 µM
[1]
  minimal effective concentration: 10 to 50 µM
[2]; [4]
  EC50: 2 to 5 µM

## CC(C)(C)n1nc(Cc2cccc(C#N)c2)c2c(N)ncnc21 [compound 59]
[1]
  minimal effective concentration: > 50 µM

## Cc1ccc(Cc2nn(C(C)(C)C)c3ncnc(N)c23)cc1 [compound 22]
[1]
  minimal effective concentration: 10 to 50 µM

Source: US20100331297A1, “MODULATION OF PROTEIN TRAFFICKING” (FOLDRX PHARMACEUTICALS, INC., priority 2007, published 2010)
